Results published in ChEMBL document CHEMBL1201862, “PubChem BioAssay data set” (2004).
Calls of active or inactive are those of the source.

What was measured:
[1] = target: T1, Sentrin-specific protease 8 (Homo sapiens, UniProt Q96LD8); experiment: inhibition of human SENP8 cleavage activity – biochemical, luminescence, SAR follow-up (AID 504501); type: functional
T1 sequence (Q96LD8 whole entry): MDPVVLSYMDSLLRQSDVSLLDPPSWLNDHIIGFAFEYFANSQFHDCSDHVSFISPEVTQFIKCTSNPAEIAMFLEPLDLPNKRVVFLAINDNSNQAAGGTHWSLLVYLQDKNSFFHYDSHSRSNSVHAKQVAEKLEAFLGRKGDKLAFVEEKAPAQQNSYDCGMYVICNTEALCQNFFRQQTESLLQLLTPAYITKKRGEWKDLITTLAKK

[2] = target: T2, Sentrin-specific protease 6 (Homo sapiens, UniProt Q9GZR1); type: functional
T2 sequence (Q9GZR1 whole entry): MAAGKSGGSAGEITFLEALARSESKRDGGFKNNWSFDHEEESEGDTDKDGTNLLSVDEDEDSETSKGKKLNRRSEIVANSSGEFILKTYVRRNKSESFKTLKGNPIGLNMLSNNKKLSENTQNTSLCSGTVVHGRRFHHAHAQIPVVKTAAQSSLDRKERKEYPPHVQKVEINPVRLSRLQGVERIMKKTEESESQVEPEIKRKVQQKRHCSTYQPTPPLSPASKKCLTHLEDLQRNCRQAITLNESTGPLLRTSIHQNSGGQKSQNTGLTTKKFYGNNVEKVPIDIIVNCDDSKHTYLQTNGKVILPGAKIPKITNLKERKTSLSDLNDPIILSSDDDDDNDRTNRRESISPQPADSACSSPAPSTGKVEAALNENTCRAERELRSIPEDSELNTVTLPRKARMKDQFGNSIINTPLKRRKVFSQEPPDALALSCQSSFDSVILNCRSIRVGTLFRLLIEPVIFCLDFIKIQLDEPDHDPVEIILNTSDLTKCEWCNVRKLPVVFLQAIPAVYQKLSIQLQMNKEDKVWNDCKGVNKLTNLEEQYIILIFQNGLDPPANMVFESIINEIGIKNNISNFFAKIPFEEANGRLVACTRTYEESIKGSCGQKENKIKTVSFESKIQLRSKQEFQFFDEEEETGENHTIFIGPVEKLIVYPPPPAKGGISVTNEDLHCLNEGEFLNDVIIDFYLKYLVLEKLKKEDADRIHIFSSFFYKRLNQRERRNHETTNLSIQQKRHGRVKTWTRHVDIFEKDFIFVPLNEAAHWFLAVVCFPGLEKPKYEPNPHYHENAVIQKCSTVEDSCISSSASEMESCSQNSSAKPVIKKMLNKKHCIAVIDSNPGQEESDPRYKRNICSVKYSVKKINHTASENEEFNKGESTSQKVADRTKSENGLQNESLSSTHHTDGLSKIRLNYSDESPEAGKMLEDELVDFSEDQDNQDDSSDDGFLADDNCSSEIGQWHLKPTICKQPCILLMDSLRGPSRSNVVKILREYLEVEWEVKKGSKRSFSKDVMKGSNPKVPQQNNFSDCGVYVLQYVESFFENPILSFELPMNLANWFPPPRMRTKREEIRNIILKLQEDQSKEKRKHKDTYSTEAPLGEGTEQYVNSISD

Caspase-3 [3] = target: T3, Caspase-3 (Homo sapiens, UniProt P42574); type: functional
T3 sequence (P42574 whole entry): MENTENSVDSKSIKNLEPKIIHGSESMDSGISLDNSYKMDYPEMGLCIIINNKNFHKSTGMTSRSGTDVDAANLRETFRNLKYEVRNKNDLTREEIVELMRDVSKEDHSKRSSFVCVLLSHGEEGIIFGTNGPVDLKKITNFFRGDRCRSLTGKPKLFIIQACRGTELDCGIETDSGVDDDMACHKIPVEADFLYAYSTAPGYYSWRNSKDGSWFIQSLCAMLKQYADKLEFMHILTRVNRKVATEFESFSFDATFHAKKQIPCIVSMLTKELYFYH

[4] = viability of HCT116 lacking mutant beta-catenin – cell-based, human colon tumor, dose response (AID 1045); type: functional;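 also: HCT116 colon tumor cells with beta catenin knocked out; cells exposed to compound for 60 hours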
[5] = viability of PTEN-deleted HCT116 cells – cell-based, HCT116 PTEN knockout, dose response (AID 1047); type: functional;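 also: HCT116 colon tumor cells with PTEN knocked out; cells exposed to compound for 60 hours before readout; potency for loss of cell viability measured by luminescence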
[6] = target: T4, Sentrin-specific protease 7 (Homo sapiens, UniProt Q9BQF6); experiment: inhibition of human SENP7 cleavage activity – biochemical, luminescence, SAR follow-up (AID 504497); type: functional
T4 sequence (Q9BQF6 whole entry): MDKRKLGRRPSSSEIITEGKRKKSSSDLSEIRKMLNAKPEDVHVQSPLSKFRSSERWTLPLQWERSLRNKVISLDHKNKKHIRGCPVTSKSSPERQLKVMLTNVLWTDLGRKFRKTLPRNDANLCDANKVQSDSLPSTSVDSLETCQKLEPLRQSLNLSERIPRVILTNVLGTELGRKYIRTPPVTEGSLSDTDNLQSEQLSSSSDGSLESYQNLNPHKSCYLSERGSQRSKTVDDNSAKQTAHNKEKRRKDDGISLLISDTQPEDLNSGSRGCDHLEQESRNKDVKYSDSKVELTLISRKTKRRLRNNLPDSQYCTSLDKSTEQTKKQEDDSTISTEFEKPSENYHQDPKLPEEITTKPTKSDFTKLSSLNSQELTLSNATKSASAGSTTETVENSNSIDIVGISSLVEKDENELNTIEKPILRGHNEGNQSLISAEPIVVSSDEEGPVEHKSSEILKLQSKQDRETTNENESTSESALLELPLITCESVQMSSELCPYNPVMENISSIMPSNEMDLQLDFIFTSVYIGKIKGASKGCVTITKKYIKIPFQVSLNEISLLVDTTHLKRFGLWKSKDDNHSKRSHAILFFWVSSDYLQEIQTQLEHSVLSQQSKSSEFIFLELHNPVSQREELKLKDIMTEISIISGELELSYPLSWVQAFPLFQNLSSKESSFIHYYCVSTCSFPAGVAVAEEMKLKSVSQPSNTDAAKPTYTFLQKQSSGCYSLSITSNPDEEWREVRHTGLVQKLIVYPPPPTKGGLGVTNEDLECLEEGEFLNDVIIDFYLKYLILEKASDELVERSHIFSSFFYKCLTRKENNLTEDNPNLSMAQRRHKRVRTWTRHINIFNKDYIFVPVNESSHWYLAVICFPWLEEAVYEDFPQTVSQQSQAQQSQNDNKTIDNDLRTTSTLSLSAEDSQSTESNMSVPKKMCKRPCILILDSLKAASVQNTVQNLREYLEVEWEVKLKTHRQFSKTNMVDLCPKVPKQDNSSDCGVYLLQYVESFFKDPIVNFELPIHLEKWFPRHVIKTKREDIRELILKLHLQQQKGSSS

[7] = target: Peroxisome proliferator-activated receptor gamma/Nuclear receptor corepressor 2 (Homo sapiens, UniProt P37231+Q9Y618); experiment: Counterscreen for NR2E3 inverse agonists: TR-FRET-based biochemical high throughput dose response assay to identify inverse agonists of the interaction between peroxisome proliferator-activated receptor gamma (PPARg) and nuclear receptor co-repressor 2 (NCOR2).; type: functional
[8] = target: T4, Sentrin-specific protease 7; type: functional
[9] = target: T2, Sentrin-specific protease 6; experiment: SAR Analysis of small molecule inhibitors of Sentrin-specific protease 6 (SENP6) using a Luminescent assay. [Related pubchem assays (depositor defined):AID2582, AID2599]; type: functional
Caspase-3 [10] = target: T3, Caspase-3; experiment: SAR Analysis of small molecule inhibitors of Sentrin-specific proteases (SENPs) using a Caspase-3 Selectivity assay. [Related pubchem assays (depositor defined):AID2540, AID2599, AID434973, AID489001]; type: functional
[11] = target: Photoreceptor-specific nuclear receptor (Homo sapiens, UniProt Q9Y5X4); experiment: ligands suppressing NR2E3 nuclear receptor activity – biochemical, TR-FRET, dose response (AID 463256); type: functional
[12] = target: T1, Sentrin-specific protease 8; type: functional
[13] = Luminescence Cell-Based Dose Response to Identify Activators of 5'UTR Stem-Loop Driven Prion Protein mRNA Translation in H4-C Neuroglioblastoma Cells. [Related pubchem assays: 1829 (Project Summary), 1814 (Primary HTS)]; type: functional
[14] = Luminescence Cell-Based Dose Confirmation to Identify Activators of 5'UTR Stem-Loop Driven Alpha-Synuclein mRNA Translation in H4 Neuroglioblastoma Cells. [Related pubchem assays: 1829 (Project Summary), 1814 (Primary HTS)]; type: functional
[15] = Luminescence Cell-Based Dose Response to Identify Activators of Luciferase Translation or Activity in H4-C Neuroglioblastoma Cells. [Related pubchem assays: 1829 (Project Summary), 1814 (Primary HTS)]; type: functional
H4 = experiment: Luminescence Cell-Based Dose Response HTS to Identify Activators of 5'UTR Stem-Loop Driven Prion Protein mRNA Translation in H4 Neuroglioblastoma Cells. [Related pubchem assays: 1829 (Project Summary), 1814 (Primary HTS)]; type: functional; conditions: Homo sapiens
[16] = Luminescence Cell-Based Dose Response HTS to Identify Activators of Luciferase Translation or Activity in H4 […] Cells. [Related pubchem assays: 1829 (Project Summary), 1814 (Primary HTS)]; type: functional
[17] = target: T5, Long-chain-fatty-acid--AMP ligase FadD28 (Mycobacterium tuberculosis, UniProt P9WQ59); experiment: Fluorescence polarization aasay to screen for inhibitors that compete for the binding of FadD28 to a bisubstrate Measured in Biochemical System Using Plate Reader - 2147-01_Inhibitor_Dose_CherryPick_Activity.; type: functional, Mycobacterium tuberculosis H37Rv
T5 sequence (P9WQ59 whole entry): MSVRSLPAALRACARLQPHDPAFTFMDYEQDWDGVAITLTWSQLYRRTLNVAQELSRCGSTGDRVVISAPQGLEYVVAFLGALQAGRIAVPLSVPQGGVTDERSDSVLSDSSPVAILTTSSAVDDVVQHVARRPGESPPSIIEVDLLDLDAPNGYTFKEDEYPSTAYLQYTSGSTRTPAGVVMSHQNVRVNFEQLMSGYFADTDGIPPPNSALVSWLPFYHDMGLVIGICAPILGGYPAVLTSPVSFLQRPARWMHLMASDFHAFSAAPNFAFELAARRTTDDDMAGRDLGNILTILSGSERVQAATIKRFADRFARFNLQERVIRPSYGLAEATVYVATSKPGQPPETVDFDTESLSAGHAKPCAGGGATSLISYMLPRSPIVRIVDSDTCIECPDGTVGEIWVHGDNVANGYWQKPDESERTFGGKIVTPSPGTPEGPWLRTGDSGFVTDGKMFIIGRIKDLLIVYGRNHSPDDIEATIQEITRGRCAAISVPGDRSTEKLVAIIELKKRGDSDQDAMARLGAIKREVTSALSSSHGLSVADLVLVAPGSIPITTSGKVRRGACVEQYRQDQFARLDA

[18] = Luminescence Cell-Based Dose Confirmation HTS to Identify Inhibitors of Polyadenylation.; type: functional

Peroxisome proliferator-activated receptor gamma/Nuclear receptor corepressor 2, sequence (P37231 whole entry): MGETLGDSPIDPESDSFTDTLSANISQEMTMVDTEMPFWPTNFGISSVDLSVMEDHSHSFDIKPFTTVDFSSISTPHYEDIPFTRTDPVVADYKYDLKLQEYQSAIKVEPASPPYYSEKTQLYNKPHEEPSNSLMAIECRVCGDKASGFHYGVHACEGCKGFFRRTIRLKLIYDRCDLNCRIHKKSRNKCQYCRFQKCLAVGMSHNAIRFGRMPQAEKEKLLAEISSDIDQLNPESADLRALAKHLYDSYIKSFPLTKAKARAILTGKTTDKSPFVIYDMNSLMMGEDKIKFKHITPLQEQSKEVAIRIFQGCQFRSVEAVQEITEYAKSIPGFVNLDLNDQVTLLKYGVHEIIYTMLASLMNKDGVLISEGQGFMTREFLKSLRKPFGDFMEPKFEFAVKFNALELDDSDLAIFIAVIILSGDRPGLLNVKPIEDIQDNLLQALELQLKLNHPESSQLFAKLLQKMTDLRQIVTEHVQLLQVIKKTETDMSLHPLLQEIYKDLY
Peroxisome proliferator-activated receptor gamma/Nuclear receptor corepressor 2, sequence (Q9Y618 whole entry): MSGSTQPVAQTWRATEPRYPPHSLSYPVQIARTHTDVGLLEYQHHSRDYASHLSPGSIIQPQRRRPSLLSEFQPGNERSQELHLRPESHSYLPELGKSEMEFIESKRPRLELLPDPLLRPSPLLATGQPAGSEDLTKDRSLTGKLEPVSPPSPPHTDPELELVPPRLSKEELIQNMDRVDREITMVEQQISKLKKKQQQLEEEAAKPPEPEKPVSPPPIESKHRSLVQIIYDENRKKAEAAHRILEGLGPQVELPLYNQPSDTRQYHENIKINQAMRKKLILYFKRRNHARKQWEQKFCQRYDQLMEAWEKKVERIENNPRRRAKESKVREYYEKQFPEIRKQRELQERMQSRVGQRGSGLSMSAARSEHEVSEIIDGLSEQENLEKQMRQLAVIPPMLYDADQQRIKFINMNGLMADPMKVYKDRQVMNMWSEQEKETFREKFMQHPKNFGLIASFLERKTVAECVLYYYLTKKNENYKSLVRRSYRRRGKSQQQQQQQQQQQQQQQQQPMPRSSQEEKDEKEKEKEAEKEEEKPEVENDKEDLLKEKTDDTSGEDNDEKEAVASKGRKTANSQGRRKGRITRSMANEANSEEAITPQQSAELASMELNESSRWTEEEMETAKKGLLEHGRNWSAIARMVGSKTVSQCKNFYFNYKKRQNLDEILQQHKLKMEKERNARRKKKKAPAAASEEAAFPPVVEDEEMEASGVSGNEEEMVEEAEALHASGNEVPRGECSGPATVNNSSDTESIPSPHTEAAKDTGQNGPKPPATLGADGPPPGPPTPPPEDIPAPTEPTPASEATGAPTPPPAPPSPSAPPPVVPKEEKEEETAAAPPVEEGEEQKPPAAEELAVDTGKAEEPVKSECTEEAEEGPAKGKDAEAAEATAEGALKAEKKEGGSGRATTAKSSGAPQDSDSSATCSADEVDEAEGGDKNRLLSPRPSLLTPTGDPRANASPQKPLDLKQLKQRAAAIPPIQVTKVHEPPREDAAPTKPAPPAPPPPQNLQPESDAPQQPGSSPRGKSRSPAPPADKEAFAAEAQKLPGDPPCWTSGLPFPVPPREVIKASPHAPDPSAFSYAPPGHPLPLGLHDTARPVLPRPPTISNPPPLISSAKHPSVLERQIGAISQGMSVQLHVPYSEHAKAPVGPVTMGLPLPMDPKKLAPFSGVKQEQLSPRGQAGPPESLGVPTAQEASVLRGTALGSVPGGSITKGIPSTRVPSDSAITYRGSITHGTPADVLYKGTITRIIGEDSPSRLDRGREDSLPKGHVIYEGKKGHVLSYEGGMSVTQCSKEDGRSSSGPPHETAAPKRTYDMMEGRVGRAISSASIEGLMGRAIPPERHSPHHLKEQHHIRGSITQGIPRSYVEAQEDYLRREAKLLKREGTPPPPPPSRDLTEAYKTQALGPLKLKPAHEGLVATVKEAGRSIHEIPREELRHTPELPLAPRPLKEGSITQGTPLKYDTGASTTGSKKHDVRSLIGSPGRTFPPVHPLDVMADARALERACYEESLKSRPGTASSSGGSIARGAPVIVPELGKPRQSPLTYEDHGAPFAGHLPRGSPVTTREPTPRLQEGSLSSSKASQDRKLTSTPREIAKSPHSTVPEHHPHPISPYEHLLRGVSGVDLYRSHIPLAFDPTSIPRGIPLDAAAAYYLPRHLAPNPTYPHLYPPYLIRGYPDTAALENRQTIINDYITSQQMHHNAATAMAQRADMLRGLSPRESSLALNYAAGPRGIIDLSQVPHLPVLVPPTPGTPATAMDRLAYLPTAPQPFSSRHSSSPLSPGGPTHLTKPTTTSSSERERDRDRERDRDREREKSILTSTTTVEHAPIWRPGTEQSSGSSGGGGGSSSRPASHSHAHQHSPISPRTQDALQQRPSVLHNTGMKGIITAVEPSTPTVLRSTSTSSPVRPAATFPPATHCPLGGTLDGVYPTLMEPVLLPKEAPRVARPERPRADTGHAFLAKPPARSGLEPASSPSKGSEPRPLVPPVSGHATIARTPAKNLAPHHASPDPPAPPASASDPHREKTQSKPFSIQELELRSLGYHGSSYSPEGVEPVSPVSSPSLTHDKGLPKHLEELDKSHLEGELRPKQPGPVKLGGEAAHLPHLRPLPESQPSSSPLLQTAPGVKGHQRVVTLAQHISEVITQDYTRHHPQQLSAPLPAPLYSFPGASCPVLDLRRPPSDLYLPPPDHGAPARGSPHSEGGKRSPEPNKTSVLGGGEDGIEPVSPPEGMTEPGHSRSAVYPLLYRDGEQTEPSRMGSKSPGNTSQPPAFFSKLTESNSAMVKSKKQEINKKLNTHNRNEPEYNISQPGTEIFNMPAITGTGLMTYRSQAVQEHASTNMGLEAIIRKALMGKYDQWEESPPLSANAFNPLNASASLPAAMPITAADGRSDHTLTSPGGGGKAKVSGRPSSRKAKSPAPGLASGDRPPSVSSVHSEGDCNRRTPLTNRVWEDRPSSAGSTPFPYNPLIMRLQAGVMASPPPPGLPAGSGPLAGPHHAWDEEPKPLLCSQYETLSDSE
Photoreceptor-specific nuclear receptor, sequence (Q9Y5X4 whole entry): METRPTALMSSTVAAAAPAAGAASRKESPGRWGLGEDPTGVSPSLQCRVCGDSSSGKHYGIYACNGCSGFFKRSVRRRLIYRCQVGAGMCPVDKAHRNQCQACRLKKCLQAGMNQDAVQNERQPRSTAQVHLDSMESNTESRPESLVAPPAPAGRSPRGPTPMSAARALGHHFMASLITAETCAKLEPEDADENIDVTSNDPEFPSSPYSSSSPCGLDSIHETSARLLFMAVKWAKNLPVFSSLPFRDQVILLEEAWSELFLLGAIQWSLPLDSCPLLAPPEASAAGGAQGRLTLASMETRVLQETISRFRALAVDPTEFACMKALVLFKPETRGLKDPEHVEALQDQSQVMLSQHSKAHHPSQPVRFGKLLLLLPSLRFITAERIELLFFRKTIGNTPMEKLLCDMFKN

**Q.** For `Cc1cc2nc(-c3ccc(SCC(=O)Nc4ccc(S(=O)(=O)NC5CC5)cc4)nc3)[nH]c2cc1C`, which IC50 [1] is on record?
**A.** > 99 µM (inactive)

**Q.** And the IC50 [2]?
**A.** > 100 µM (inactive)

**Q.** And the IC50 (Caspase-3 [3])?
**A.** 21.3 µM (active)

**Q.** And the EC50 [4]?
**A.** 24.7 µM (active)

**Q.** And the EC50 [5]?
**A.** 22.7 µM (active)

**Q.** What about the IC50 [6] of the same molecule?
**A.** 2.75 µM (active)

**Q.** And the IC50 [7]?
**A.** 4.15 µM (active)

**Q.** What about the IC50 [8] of the same molecule?
**A.** 2.43 µM (active)

**Q.** What about the IC50 [9] of the same molecule?
**A.** > 99 µM (inactive)

**Q.** And the IC50 (Caspase-3 [10])?
**A.** 14.4 µM (active)

**Q.** And the IC50 [11]?
**A.** > 39.8 µM (not active)

**Q.** And the IC50 [12]?
**A.** > 100 µM (inactive)

**Q.** Which EC50 [13] does the source give for `O=C(O)c1ccc(N/N=C/C(Br)=C/c2ccccc2)cc1` here?
**A.** 0.316 µM (active)

**Q.** What about the EC50 [14] of the same molecule?
**A.** 0.425 µM (active)

**Q.** What about the EC50 [15] of the same molecule?
**A.** 0.368 µM (active)

**Q.** What about the EC50 (H4) of the same molecule?
**A.** 7.2 µM (active)

**Q.** And the EC50 [16]?
**A.** < 0.1 µM (active)

**Q.** What about the AC50 [17] of the same molecule?
**A.** > 100 µM (inactive)

**Q.** With `C/C(=N\NC(=O)COc1ccc(C)cc1[N+](=O)[O-])c1cccs1` as the molecule, how does the EC50 [18] read?
**A.** > 120 µM (not active)
